What all share (test): Method 1: intracellular Ca2+ release (FLIPR, Calcium 5) in recombinant CHO-K1 cells
Type in all cases: cell-based

One experiment has as its target T1, human S1PR5 receptor (Homo sapiens, UniProt Q9H228).
T1 construct: host or cells: CHO-K1
Conditions: agonist potency, determined with method 1 (symbols A-D); read-out: S1P5 EC50 range. The essentials: (§1)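 Agonist EC50; CHO-K1 + Gq/i5 + aequorin; Calcium 5 dye 1 h 37 °C, 45 min RT; serial-dilution compound add; FLIPR read; normalized to phospho-fingolimod.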

The target in another experiment is T2, human S1PR1 receptor (Homo sapiens, UniProt P21453).
T2 construct: host or cells: CHO-K1
The following applies: (1): determined with method 1; read-out: S1P1 EC50. The essentials:
as §1

In another experiment the target is T3, human S1PR4 receptor (Homo sapiens, UniProt O95977).
T3 construct: host or cells: CHO-K1
T3 sequence (O95977 1-384): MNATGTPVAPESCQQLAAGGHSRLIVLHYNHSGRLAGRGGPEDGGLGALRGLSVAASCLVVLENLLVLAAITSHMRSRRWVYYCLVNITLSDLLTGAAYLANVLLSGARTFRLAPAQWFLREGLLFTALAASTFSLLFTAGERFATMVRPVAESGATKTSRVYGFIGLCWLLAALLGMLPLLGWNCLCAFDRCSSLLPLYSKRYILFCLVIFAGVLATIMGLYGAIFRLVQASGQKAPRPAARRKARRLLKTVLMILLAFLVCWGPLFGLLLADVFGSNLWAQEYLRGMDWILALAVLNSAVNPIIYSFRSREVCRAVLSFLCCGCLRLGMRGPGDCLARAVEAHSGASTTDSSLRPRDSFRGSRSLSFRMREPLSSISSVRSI
Conditions: (1): determined with method 1; read-out: S1P4 EC50. Summed up:
as §1

Structures can show the parent of a compound that is named as a salt.

T2 sequence (P21453 whole entry): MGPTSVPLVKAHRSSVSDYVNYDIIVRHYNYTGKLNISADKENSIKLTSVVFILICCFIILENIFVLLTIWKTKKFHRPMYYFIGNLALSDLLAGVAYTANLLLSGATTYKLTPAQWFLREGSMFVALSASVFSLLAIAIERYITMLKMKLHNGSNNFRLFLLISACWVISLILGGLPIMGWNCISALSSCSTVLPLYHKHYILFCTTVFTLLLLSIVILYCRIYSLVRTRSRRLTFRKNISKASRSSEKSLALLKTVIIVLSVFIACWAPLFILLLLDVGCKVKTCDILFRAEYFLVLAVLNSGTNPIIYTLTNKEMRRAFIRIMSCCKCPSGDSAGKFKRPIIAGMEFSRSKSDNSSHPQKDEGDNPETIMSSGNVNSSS
T1 sequence (Q9H228 whole entry): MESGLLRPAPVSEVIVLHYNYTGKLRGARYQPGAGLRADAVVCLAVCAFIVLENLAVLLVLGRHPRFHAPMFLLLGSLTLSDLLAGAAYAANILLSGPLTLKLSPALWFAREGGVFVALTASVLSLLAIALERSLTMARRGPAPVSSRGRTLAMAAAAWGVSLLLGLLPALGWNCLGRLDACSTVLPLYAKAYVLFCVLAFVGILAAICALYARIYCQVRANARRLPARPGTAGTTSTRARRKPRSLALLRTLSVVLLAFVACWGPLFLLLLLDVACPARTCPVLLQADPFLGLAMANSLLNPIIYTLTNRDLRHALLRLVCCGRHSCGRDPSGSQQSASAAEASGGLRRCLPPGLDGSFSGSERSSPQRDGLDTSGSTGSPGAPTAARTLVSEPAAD

`CCc1ccccc1COc1ccc(-c2ncc3c(n2)CCN(CC(C)CC(=O)O)C3)cc1C` (stereo not drawn) [Compound 308, 4-[2-[4-[(2-ethylphenyl)methoxy]-3-methyl-phenyl]-7,8-dihydro-5H-pyrido[4,3-d]pyrimidin-6-yl]-3-methyl-butanoic acid 2,2,2-trifluoroacetic acid salt]: the EC50 (as a rule, the concentration at which the effect is half-maximal) on human S1PR5 receptor is 0.1 to 1 µM; on human S1PR1 receptor, above 1 µM; at human S1PR4 receptor, below 1 µM.

As to `Cc1cc(-c2ncc3c(n2)CCN(CC(C)CC(=O)O)C3)ccc1OCc1ccccc1C(F)(F)F` (stereo not drawn) [Compound 309, 3-methyl-4-[2-[3-methyl-4-[[2-(trifluoromethyl)phenyl]methoxy]phenyl]-7,8-dihydro-5H-pyrido[4,3-d]pyrimidin-6-yl]butanoic acid 2,2,2-trifluoroacetic acid salt], the EC50 is 0.1 to 1 µM on human S1PR5 receptor, above 1 µM at human S1PR1 receptor and above 1 µM at human S1PR4 receptor.

Turning to `Cc1cc(-c2ncc3c(n2)CCN(CC(C)CC(=O)O)C3)ccc1OCc1ccc(C(C)C)cc1` (stereo not drawn) [Compound 310, 4-[2-[4-[(4-isopropylphenyl)methoxy]-3-methyl-phenyl]-7,8-dihydro-5H-pyrido[4,3-d]pyrimidin-6-yl]-3-methyl-butanoic acid 2,2,2-trifluoroacetic acid salt], the values for the EC50 at human S1PR5 receptor, at human S1PR1 receptor and on human S1PR4 receptor were 0.1 to 1 µM, above 1 µM and above 1 µM, respectively.

For `Cc1ccc(C)c(COc2ccc(-c3ncc4c(n3)CCN(CC(C)CC(=O)O)C4)cc2C)c1` (stereo not drawn) [Compound 311, 4-[2-[4-[(2,5-dimethylphenyl)methoxy]-3-methyl-phenyl]-7,8-dihydro-5H-pyrido[4,3-d]pyrimidin-6-yl]-3-methyl-butanoic acid 2,2,2-trifluoroacetic acid salt], the EC50 was 0.1 to 1 µM at human S1PR5 receptor, above 1 µM at human S1PR1 receptor and above 1 µM on human S1PR4 receptor.

In the case of `CC(C(=O)O)N1CCc2nc(-c3ccc(OCc4ccc(Cl)cc4)cc3)ncc2C1` (stereo not drawn) [Compound 312, 2-(2-(4-((4-chlorobenzyl)oxy)phenyl)-7,8-dihydropyrido[4,3-d]pyrimidin-6(5H)-yl)propanoic acid], the EC50 was 0.1 to 1 µM on human S1PR5 receptor, above 1 µM on human S1PR1 receptor and above 1 µM at human S1PR4 receptor.

As for `Cc1cc(C)cc(COc2ccc(-c3ncc4c(n3)CCN(CC(C)CC(=O)O)C4)c(F)c2)c1` (stereo not drawn) [Compound 313, 4-[2-[4-[(3,5-dimethylphenyl)methoxy]-2-fluoro-phenyl]-7,8-dihydro-5H-pyrido[4,3-d]pyrimidin-6-yl]-3-methyl-butanoic acid 2,2,2-trifluoroacetic acid salt], the EC50 on human S1PR5 receptor is 0.1 to 1 µM; at human S1PR1 receptor it was above 1 µM; at human S1PR4 receptor, above 1 µM.

As for `Cc1ccc(C(F)(F)F)cc1COc1ccc(-c2ncc3c(n2)CCN(CC(C)CC(=O)O)C3)cc1C` (stereo not drawn) [Compound 314, 3-methyl-4-[2-[3-methyl-4-[[2-methyl-5-(trifluoromethyl)phenyl]methoxy]phenyl]-7,8-dihydro-5H-pyrido[4,3-d]pyrimidin-6-yl]butanoic acid 2,2,2-trifluoroacetic acid salt], the figures for the EC50 at human S1PR5 receptor, on human S1PR1 receptor and on human S1PR4 receptor were 0.1 to 1 µM, above 1 µM and above 1 µM, respectively.

With `C[C@H](CCO)CN1CCc2nc(-c3ccc(OCc4ccc(Cl)cc4)cc3)ncc2C1` [Compound 315, (R)-4-(2-(4-((4-chlorobenzyl)oxy)phenyl)-7,8-dihydropyrido[4,3-d]pyrimidin-6(5H)-yl)-3-methylbutan-1-ol], the results for the EC50 at human S1PR5 receptor, at human S1PR1 receptor and at human S1PR4 receptor were 0.1 to 1 µM, above 1 µM and above 1 µM, respectively.

Consider `Cc1cc(-c2ncc3c(n2)CCN(CC(C)CC(=O)O)C3)ccc1OCc1c(F)cccc1F` (stereo not drawn) [Compound 316, 4-[2-[4-[(2,6-difluorophenyl)methoxy]-3-methyl-phenyl]-7,8-dihydro-5H-pyrido[4,3-d]pyrimidin-6-yl]-3-methyl-butanoic acid 2,2,2-trifluoroacetic acid salt], for which the EC50 on human S1PR5 receptor was 0.1 to 1 µM; at human S1PR1 receptor it was above 1 µM; at human S1PR4 receptor, below 1 µM.

On to `CC(C(=O)O)N1CCc2nc(-c3ccc(OCc4cccc(Cl)c4)cc3)ncc2C1` (stereo not drawn) [Compound 317, 2-(2-(4-((3-chlorobenzyl)oxy)phenyl)-7,8-dihydropyrido[4,3-d]pyrimidin-6(5H)-yl)propanoic acid], for which the 50% effective concentration (EC50) at human S1PR5 receptor was 0.1 to 1 µM; on human S1PR1 receptor, above 1 µM; at human S1PR4 receptor it was above 1 µM.

As to `Cc1cc(-c2ncc3c(n2)CCN(C[C@H](C)CC(=O)O)C3)ccc1OCc1ccc(Cl)cc1` [Compound 318, (R)-4-(2-(4-((4-chlorobenzyl)oxy)-3-methylphenyl)-7,8-dihydropyrido[4,3-d]pyrimidin-6(5H)-yl)-3-methylbutanoic acid], the EC50 on human S1PR5 receptor is 0.1 to 1 µM; at human S1PR1 receptor it was above 1 µM; at human S1PR4 receptor it was above 1 µM.

As to `Cc1cc(-c2ncc3c(n2)CCN(C[C@H](C)CC(=O)O)C3)ccc1OCc1ccccc1` [Compound 319, (R)-4-(2-(4-(benzyloxy)-3-methylphenyl)-7,8-dihydropyrido[4,3-d]pyrimidin-6(5H)-yl)-3-methylbutanoic acid], the EC50 on human S1PR5 receptor was 0.1 to 1 µM; at human S1PR1 receptor it was above 1 µM; on human S1PR4 receptor, above 1 µM.

Take `Cc1cccc(COc2ccc(-c3ncc4c(n3)CCN(CC(C)CC(=O)O)C4)cc2C)c1` (stereo not drawn) [Compound 320, 3-methyl-4-[2-[3-methyl-4-(m-tolylmethoxy)phenyl]-7,8-dihydro-5H-pyrido[4,3-d]pyrimidin-6-yl]butanoic acid 2,2,2-trifluoroacetic acid salt]: the EC50 is 1 to 10 µM on human S1PR5 receptor, above 1 µM on human S1PR1 receptor and above 1 µM on human S1PR4 receptor.

Take `CC(C(=O)O)N1CCc2nc(-c3ccc(OCc4ccccc4)cc3)ncc2C1` (stereo not drawn) [Compound 322, 2-(2-(4-(benzyloxy)phenyl)-7,8-dihydropyrido[4,3-d]pyrimidin-6(5H)-yl)propanoic acid]: the EC50 on human S1PR5 receptor is 1 to 10 µM; on human S1PR1 receptor, above 1 µM; on human S1PR4 receptor, above 1 µM.

With `CC(CC(=O)O)CN1CCc2nc(-c3ccc(C4CC4c4ccc(Cl)cc4)cc3)ncc2C1` (stereo not drawn) [Compound 323, 4-(2-(4-(2-(4-chlorophenyl)cyclopropyl)phenyl)-7,8-dihydropyrido[4,3-d]pyrimidin-6(5H)-yl)-3-methylbutanoic acid], the EC50 was 1 to 10 µM at human S1PR5 receptor, above 1 µM at human S1PR1 receptor and above 1 µM on human S1PR4 receptor.

Turning to `CC(CC(=O)O)CN1CCc2nc(-c3ccc(C(F)(F)Cc4cccc(Cl)c4)cc3)ncc2C1` (stereo not drawn) [Compound 328, 4-(2-(4-(2-(3-chlorophenyl)-1,1-difluoroethyl)phenyl)-7,8-dihydropyrido[4,3-d]pyrimidin-6(5H)-yl)-3-methylbutanoic acid], the EC50 on human S1PR5 receptor was 1 to 10 µM; at human S1PR1 receptor, above 1 µM; at human S1PR4 receptor it was above 1 µM.

Take `CC(CC(=O)O)CN1Cc2cnc(-c3ccc(OCc4ccc(Cl)cc4)cc3)nc2CC1(C)C` (stereo not drawn) [Compound 329, 4-(2-(4-((4-chlorobenzyl)oxy)phenyl)-7,7-dimethyl-7,8-dihydropyrido[4,3-d]pyrimidin-6(5H)-yl)-3-methylbutanoic acid]: the concentration for a half-maximal effect (EC50) on human S1PR5 receptor was 1 to 10 µM; on human S1PR1 receptor it was above 1 µM; at human S1PR4 receptor, above 1 µM.

With `Cc1cc(-c2ncc3c(n2)CCN(CC(C)CC(=O)O)C3)ccc1CCc1cccc(Cl)c1` (stereo not drawn) [Compound 331, 4-(2-(4-(3-chlorophenethyl)-3-methylphenyl)-7,8-dihydropyrido[4,3-d]pyrimidin-6(5H)-yl)-3-methylbutanoic acid], the values for the 50% effective concentration (EC50) on human S1PR5 receptor, at human S1PR1 receptor and at human S1PR4 receptor were 1 to 10 µM, above 1 µM and below 1 µM, respectively.

With `C[C@H](CC(=O)O)C(=O)N1CCc2nc(-c3ccc(OCc4ccc(Cl)cc4)cc3)ncc2C1` [Compound 332, (R)-4-(2-(4-((4-chlorobenzyl)oxy)phenyl)-7,8-dihydropyrido[4,3-d]pyrimidin-6(5H)-yl)-3-methyl-4-oxobutanoic acid], the results for the EC50 on human S1PR5 receptor, at human S1PR1 receptor and on human S1PR4 receptor were 1 to 10 µM, above 1 µM and above 1 µM, respectively.

As for `CC(CC(=O)O)CN1CCc2nc(C3CC(OCc4ccccc4)C3)ncc2C1` (stereo not drawn) [Compound 333, 4-(2-(3-(benzyloxy)cyclobutyl)-7,8-dihydropyrido[4,3-d]pyrimidin-6(5H)-yl)-3-methylbutanoic acid], the concentration for a half-maximal effect (EC50) was 1 to 10 µM on human S1PR5 receptor, above 1 µM at human S1PR1 receptor and above 1 µM on human S1PR4 receptor.

In the case of `O=C(O)C1(CCN2CCc3nc(-c4ccc(OCc5ccc(Cl)cc5)cc4)ncc3C2)CC1` [Compound 335, 1-(2-(2-(4-((4-chlorobenzyl)oxy)phenyl)-7,8-dihydropyrido[4,3-d]pyrimidin-6(5H)-yl)ethyl)cyclopropanecarboxylic acid], the EC50 was 0.1 to 1 µM on human S1PR5 receptor, above 1 µM at human S1PR1 receptor and above 1 µM at human S1PR4 receptor.

`CC(CC(=O)O)CN1CCc2nc(-c3ccc(OCC4CCCCC4)cc3)ncc2C1` (stereo not drawn) [Compound 336, 4-(2-(4-(cyclohexylmethoxy)phenyl)-7,8-dihydropyrido[4,3-d]pyrimidin-6(5H)-yl)-3-methylbutanoic acid]: the values for the EC50 on human S1PR5 receptor, on human S1PR1 receptor and at human S1PR4 receptor were below 0.01 µM, above 1 µM and below 1 µM, respectively.

The record behind these values is patent US10556907B2 (AbbVie Inc., priority 2015, dated 2020).
